Source: paper PMC10322725, “Assimilatory sulfate reduction in the marine methanogen Methanothermococcus thermolithotrophicus” (Nature Microbiology, 2023)
Each block holds one molecule with its values, some of them ahead of it.

Assays:
MtPAPP [1] = molecular target: T1, MtPAPP (Methanothermococcus thermolithotrophicus, UniProt A0AA82WPC3); experiment: X-ray crystallography, […] Å; format: binding; conditions: co-crystallized with 2 mM PAP and MnCl2; partially occupied Mn2+ in active site
T1 construct: recombinant in E. coli, codon-optimized gene in pET-28a(+) NdeI/BamHI, HisTrap, tag cleaved if necessary; DHH domain 1-180, linker 181-210, DHHA1 211-315
T1 sequence (A0AA82WPC3 1-315): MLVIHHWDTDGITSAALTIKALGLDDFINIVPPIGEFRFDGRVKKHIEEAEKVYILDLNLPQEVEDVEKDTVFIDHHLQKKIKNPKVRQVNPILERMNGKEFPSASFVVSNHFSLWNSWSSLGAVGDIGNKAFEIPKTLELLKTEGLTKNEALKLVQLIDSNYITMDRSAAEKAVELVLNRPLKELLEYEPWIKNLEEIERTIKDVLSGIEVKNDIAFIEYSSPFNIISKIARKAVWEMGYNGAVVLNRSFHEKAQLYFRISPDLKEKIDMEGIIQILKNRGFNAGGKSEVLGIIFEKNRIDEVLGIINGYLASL

MtAPSK = molecular target: T2, MtAPSK (Methanothermococcus thermolithotrophicus, UniProt A0AA82WPC2); experiment: coupled NADH oxidation assay with MtATPS, pyrophosphatase, pyruvate kinase/lactate dehydrogenase; format: biochemical; conditions: APS generated in situ by MtATPS; 2 mM ATP, Mg2+, pH 7.0, 35 °C
T2 construct: gene cysC; recombinant in E. coli, codon-optimized gene in pET-28a(+) NdeI/BamHI, HisTrap, tag cleaved if necessary; homodimer

MtATPS = molecular target: T3, MtATPS (Methanothermococcus thermolithotrophicus, UniProt A0AA82WPC1); experiment: coupled NADH oxidation assay with MtAPSK, pyrophosphatase, pyruvate kinase/lactate dehydrogenase; format: biochemical; conditions: 2.5 mM Na2SO4, 2 mM ATP, Mg2+, pH 7.0, 35 °C; pyrophosphatase rate-limiting
T3 construct: gene sat; recombinant in E. coli, codon-optimized gene in pET-28a(+) NdeI/BamHI, HisTrap, tag cleaved if necessary; homodimer; domains 1-156, 164-314, 320-382
T3 sequence (A0AA82WPC1 4-385): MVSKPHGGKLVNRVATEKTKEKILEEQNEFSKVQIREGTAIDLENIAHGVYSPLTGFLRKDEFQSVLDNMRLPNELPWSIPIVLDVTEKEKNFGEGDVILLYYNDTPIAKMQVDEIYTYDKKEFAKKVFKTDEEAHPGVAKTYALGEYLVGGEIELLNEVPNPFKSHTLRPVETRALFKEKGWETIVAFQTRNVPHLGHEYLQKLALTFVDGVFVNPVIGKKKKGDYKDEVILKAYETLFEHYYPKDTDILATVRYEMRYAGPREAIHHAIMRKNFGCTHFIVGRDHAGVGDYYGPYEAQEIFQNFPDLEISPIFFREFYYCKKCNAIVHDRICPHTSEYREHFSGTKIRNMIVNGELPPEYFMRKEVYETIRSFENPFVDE

MtPAPSR [2] = molecular target: T4, MtPAPSR (Methanothermococcus thermolithotrophicus, UniProt A0AA82WPC4); experiment: X-ray crystallography, […] Å; format: binding; conditions: bound in alpha subunit; crystal for phasing co-crystallized with 0.5 mM FAD
T4 construct: alpha and beta co-expressed in E. coli from pET-28a(+) NcoI/BamHI, C-terminal His-tag on alpha, anaerobic purification; alpha2beta2 heterotetramer; with Adenylylsulfate reductase subunit beta (PAPS reductase beta subunit)

MtPAPSR [3] = molecular target: T4, MtPAPSR; experiment: coupled assay, oxidation of reduced methyl viologen at […] nm; format: biochemical; conditions: PAPS generated in situ by MtATPS and MtAPSK, PAP removed by MtPAPP; HEPES pH 7.0, Mn2+, Mg2+, 45 °C, anaerobic
MtPAPP [4] = molecular target: T1, MtPAPP; experiment: malachite green phosphate assay; format: biochemical; conditions: 40 µM PAP, 50 µM MnCl2, Tris/HCl pH 7.64, 40 °C
[5] = molecular target: APS kinase from Methanothermococcus thermolithotrophicus (MtAPSK) (Methanothermococcus thermolithotrophicus); experiment: crystal structure; MtAPSK co-crystallized with 2 mM MgCl2, apo state with bound phosphate, sitting drop, 18 °C, aerobic
[6] = molecular target: ATP sulfurylase from Methanothermococcus thermolithotrophicus (MtATPS) (Methanothermococcus thermolithotrophicus); experiment: SEC; size exclusion chromatography of purified MtATPS; conditions in the supplement

T4 sequence (A0AA82WPC4 entry or part of it): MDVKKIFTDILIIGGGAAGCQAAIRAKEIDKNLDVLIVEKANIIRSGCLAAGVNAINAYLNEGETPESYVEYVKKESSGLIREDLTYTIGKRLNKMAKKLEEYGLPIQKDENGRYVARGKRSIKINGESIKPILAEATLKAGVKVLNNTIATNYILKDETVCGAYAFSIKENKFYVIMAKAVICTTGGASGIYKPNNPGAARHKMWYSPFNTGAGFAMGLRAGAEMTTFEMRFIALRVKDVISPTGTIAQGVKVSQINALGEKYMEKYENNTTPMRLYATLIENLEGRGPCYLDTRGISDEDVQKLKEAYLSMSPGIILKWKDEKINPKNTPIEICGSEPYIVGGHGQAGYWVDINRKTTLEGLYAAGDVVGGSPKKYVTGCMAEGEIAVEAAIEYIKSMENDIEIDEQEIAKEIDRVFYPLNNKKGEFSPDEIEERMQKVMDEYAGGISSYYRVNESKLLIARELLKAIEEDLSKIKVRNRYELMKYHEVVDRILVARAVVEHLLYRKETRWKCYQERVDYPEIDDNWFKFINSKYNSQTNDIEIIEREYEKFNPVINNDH
T4 sequence (A0AA82WPC5 entry or part of it, further chain): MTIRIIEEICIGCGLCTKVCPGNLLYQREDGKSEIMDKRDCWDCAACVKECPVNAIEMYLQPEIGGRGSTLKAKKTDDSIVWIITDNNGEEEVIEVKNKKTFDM
T2 sequence (A0AA82WPC2 entry or part of it): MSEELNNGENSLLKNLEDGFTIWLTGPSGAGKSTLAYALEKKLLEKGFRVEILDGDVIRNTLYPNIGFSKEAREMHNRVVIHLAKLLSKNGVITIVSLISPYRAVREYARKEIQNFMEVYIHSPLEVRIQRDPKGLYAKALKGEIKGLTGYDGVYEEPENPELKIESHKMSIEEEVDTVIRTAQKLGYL

Molecule: Nc1ncnc2c1ncn2[C@@H]1O[C@H](COP(=O)(O)O)[C@@H](O)[C@H]1O [AMP]
X-ray crystallography, 3.1 Å (MtPAPP [1]): contained the product AMP and an ion in its active site

Molecule: Nc1ncnc2c1ncn2[C@@H]1O[C@H](COP(=O)(O)OP(=O)(O)OP(=O)(O)O)[C@@H](O)[C@H]1O [ATP]
coupled NADH oxidation assay with MtATPS, pyrophosphatase, pyruvate kinase/lacta (MtAPSK): determined by the production of ADP which was coupled to NADH oxidation
coupled NADH oxidation assay with MtAPSK, pyrophosphatase, pyruvate kinase/lacta (MtATPS): activity of the recombinantly expressed MtATPS and MtAPSK was tested via a coupled assay

Molecule: Cc1cc2nc3c(=O)[nH]c(=O)nc-3n(C[C@H](O)[C@H](O)[C@H](O)COP(=O)(O)OP(=O)(O)OC[C@H]3O[C@@H](n4cnc5c(N)ncnc54)[C@H](O)[C@@H]3O)c2cc1C [FAD]
X-ray crystallography, 1.45 Å (MtPAPSR [2]): the α subunit, containing the flavin adenine dinucleotide (FAD)

Molecule: Nc1ncnc2c1ncn2[C@@H]1O[C@H](COP(=O)(O)OS(=O)(=O)O)[C@@H](OP(=O)(O)O)[C@H]1O [PAPS]
coupled assay, oxidation of reduced methyl viologen at 600 nm (MtPAPSR [3]): MtATPS, a pyrophosphatase and the MtAPSK were used to generate PAPS

Molecule: Nc1ncnc2c1ncn2[C@@H]1O[C@H](COP(=O)(O)O)[C@@H](OP(=O)(O)O)[C@H]1O [PAP]
malachite green phosphate assay (MtPAPP [4]): produced inorganic phosphate (Pi) from PAP at fast rates

Molecule: O=S(=O)(O)O [SO42−]
coupled NADH oxidation assay with MtAPSK, pyrophosphatase, pyruvate kinase/lacta (MtATPS): activity of the recombinantly expressed MtATPS and MtAPSK was tested via a coupled assay

stoichiometry N [5]: 2
Molecule: APS kinase from Methanothermococcus thermolithotrophicus (MtAPSK) (enzyme)

stoichiometry N [6]: 2
Molecule: ATP sulfurylase from Methanothermococcus thermolithotrophicus (MtATPS) (enzyme)
